Results reported in article PMC11149917, “Translational and Therapeutic Evaluation of RAS-GTP Inhibition by RMC-6236 in RAS-Driven Cancers” (Cancer Discovery, 2024).

What was measured:
eCT26 syngeneic tumors = assay: Flow-cytometric analysis of tumor microenvironment; format: in vivo, mouse
Description: For the TME analysis, tumor tissue was collected 24 hours post the last dose after 4 days of treatment with vehicle or RMC-6236 and was processed for flow-cytometric analysis. […] For the RMC-6236–treated group, the tumor average on day 0 was 445 ± 163 mm^3, and it regressed by day 4 to 71 ± 32 mm^3. Tumor tissue was minced, processed with the Dri Tumor & Tissue Dissociation Reagent from BD Biosciences and homogenized with the gentleMACS Dissociator. Tumor cell suspensions were incubated at 4°C for 30 minutes with Mouse BD Fc Block (Clone 2.4G2 from BD Pharmingen), 10 minutes with Blue Dead Cell Stain Kit (from Invitrogen) and 30 minutes in cell staining buffer. […] Cells were analyzed on a 4-laser Cytek Aurora (Cytek Biosciences), and data analysis was done using SpectroFlo (Cytek Biosciences) and FlowJo (FlowJo LLC).

CypA = CypA (Homo sapiens, UniProt P62937); assay: CypA binding affinity (KD1), SPR; conditions: average of 18 replicate experiments; read-out: affinity for CypA protein (KD1)
Description: The binding affinity of compounds for CypA was assessed by surface plasmon resonance (SPR) on Biacore 8K instrument. AviTag-CypA was immobilized on a streptavidin sensor chip, and varying compound concentrations were flowed over the chip in assay buffer (10 mmol/L HEPES-NaOH pH 7.4, 150 mmol/L NaCl, 0.005% v/v Surfactant P20, 2% v/v DMSO). The SPR sensograms were fit using either a steady-state affinity model or a 1:1 binding (kinetic) model to assess the KD1 for CypA binding.

CCn1c(-c2cc(N3CCN(C)CC3)cnc2[C@H](C)OC)c2c3cc(ccc31)-c1csc(n1)C[C@H](NC(=O)[C@H]1C[C@@H]1C)C(=O)N1CCC[C@H](N1)C(=O)OCC(C)(C)C2 [RMC-6236]
tumor volume average on day 4 (eCT26 syngeneic tumors; 4 days of treatment, day 0 average 445 ± 163 mm^3): 71 ± 32 mm^3
monocytic and granulocytic myeloid-derived suppressor cells and M2 macrophages (eCT26 syngeneic tumors; after 4 days of 25 mg/kg po qd): decreased
CD4^+ and CD8^+ T cells in the tumor microenvironment (eCT26 syngeneic tumors; after 4 days of 25 mg/kg po qd, relative to vehicle): significant increase
